Measured values published in US8450319B2, “Pyrrolopyridazinone compound” (Ube Industries, Ltd., priority 2006, dated 2013).

Legend:
PDE4 = assay: Measurement of PDE4 enzyme inhibiting action; assay type: biochemical, human; conditions: PDE4 enzyme solution from polymorphonuclear leukocytes of healthy volunteer; 0.2 μM [3H]cAMP, 30° C., 30 minutes; read-out: PDE4 inhibition IC50 value
Protocol: Preparation of a PDE4 enzyme solution was carried out according to the method of Cooper et al. (Br. J. Pharmacol., 126, 1863 (1999)) by modifying a part thereof. Heparin-treated peripheral blood from healthy volunteer was stratified by a blood cell separating solution (Polymorphprep™, available from AXIS-SHIELD PoC AS CO.), and centrifugation was carried out at 20° C. with 1900 rpm for 27 minutes to obtain polymorphonuclear leukocytes. The polymorphonuclear leukocytes were washed with a Hanks' balanced salt solution, then, a mixed solution comprising 70% of 10 mM 3-morpholinopropane sulfonic acid buffer solution (pH 7.4) containing 1 mM EGTA, 1 mM magnesium acetate and 5 mM dithiothreitol and 30% of ethylene glycol was added thereto to dissolve the same under ice-cooling, and the obtained cell dissolved solution was used as a PDE4 enzyme solution.
Measurement of PDE4 activity was carried out according to the method of Owens, et al. (Biochem. J., 326, 53 (1997)) by modifying a part thereof. The PDE4 enzyme solution was incubated with a compound to be tested dissolved in dimethylsulfoxide in 80 mM Tris-HCl buffer solution (pH 7.4) containing 0.2 μM [^3H] cAMP, 0.1 mM cGMP, 20 mM MgCl2 and 12 mM 2-mercaptoethanol at 30° C. for 30 minutes. Trifluoroacetic acid (final concentration: 1%) was added to the mixture to stop the reaction, and the reaction mixture was added to neutral alumina column (BOND ELUT™, available from VARIAN INC.). After the column was washed with 100 mM Tris-HCl buffer solution (pH 8.0), [^3H] 5′-AMP was eluted with 2N sodium hydroxide solution, and radioactivity of the eluent was measured by a liquid scintillation analyzer.
A concentration of the compound to be tested which inhibits 50% of PDE4 activity was calculated from the relation between the concentration of the compound to be tested which had been added and PDE4 activity as an IC50 value.

cynomulgus monkey = assay: Emetic action test in cynomulgus monkey; conditions: suspended in 0.5% aqueous methyl cellulose, administered nasally; emesis observed for 24 hours; 3 or 4 monkeys per dose
Protocol: The compound to be tested was suspended in 0.5% aqueous methyl cellulose solution (5 ml/Kg), and administered nasally.
With respect to each dose, each administered to 3 or 4 monkeys, and a dose in which emesis had not been admitted in all monkeys was made a maximum non-emesis dose.

SMILES	IC50 (PDE4)	melting point	Monkey Maximum non-emesis dose (cynomulgus monkey)
CC(C)COCc1c(-c2ccc(OC(F)F)c(OC3CC3)c2)[nH]c2cn[nH]c(=O)c12 [Example 62, 2-(3-Cyclopropoxy-4-difluoromethoxyphenyl)-3-isobutoxymethyl-1,5-dihydropyrrolo[2,3-d]pyridazin-4-one]	0.41 nM	162 to 164 °C	>10 mg/kg
COc1ccc(Cc2c(-c3ccc(OC(F)F)c(OC4CC4)c3)[nH]c3cn[nH]c(=O)c23)cn1 [Example 29, 2-(3-Cyclopropoxy-4-difluoromethoxyphenyl)-3-(6-methoxy-3-pyridylmethyl)-1,5-dihydropyrrolo[2,3-d]pyridazin-4-one]	0.57 nM	220 to 221 °C	
C#Cc1c(-c2ccc(OC(F)F)c(OC3CC3)c2)[nH]c2cn[nH]c(=O)c12 [Example 16, 2-(3-Cyclopropoxy-4-difluoromethoxyphenyl)-3-ethynyl-1,5-dihydropyrrolo[2,3-d]pyridazin-4-one]	13 nM	> 300 °C	
O=c1[nH]ncc2[nH]c(-c3ccc(OC(F)F)c(OC4CC4)c3)c(COC3CCC3)c12 [Example 13, 3-Cyclobutoxymethyl-2-(3-cyclopropoxy-4-difluoromethoxyphenyl)-1,5-dihydropyrrolo[2,3-d]pyridazin-4-one]	0.65 nM	95 to 100 °C	
O=c1[nH]ncc2[nH]c(-c3ccc(OC(F)F)c(OC4CCC4)c3)cc12 [Example 31, 2-(3-Cyclobutoxy-4-difluoromethoxyphenyl)-1,5-dihydropyrrolo[2,3-d]pyridazin-4-one]	9.1 nM	289 to 291 °C	
O=c1[nH]ncc2[nH]c(-c3ccc(OC(F)F)c(OC4CC4)c3)c(C3CC3)c12 [Example 14, 2-(3-Cyclopropoxy-4-difluoromethoxyphenyl)-3-cyclopropyl-1,5-dihydropyrrolo[2,3-d]pyridazin-4-one]	4.7 nM	248 to 249 °C	
O=c1[nH]ncc2[nH]c(-c3ccc(OC(F)F)c(OC4CCC4)c3)c(-c3ccccc3)c12 [Example 34, 2-(3-Cyclobutoxy-4-difluoromethoxyphenyl)-3-phenyl-1,5-dihydropyrrolo[2,3-d]pyridazin-4-one]	8.7 nM	280 to 284 °C	
CC(C)Cc1c(-c2ccc(OC(F)F)c(OC3CC3)c2)[nH]c2cn[nH]c(=O)c12 [Example 9, 2-(3-Cyclopropoxy-4-difluoromethoxyphenyl)-3-isobutyl-1,5-dihydropyrrolo[2,3-d]pyridazin-4-one]	1.8 nM	239 to 241 °C	
CCOCc1c(-c2ccc(OC(F)F)c(OC3CC3)c2)[nH]c2cn[nH]c(=O)c12 [Example 12, 2-(3-Cyclopropoxy-4-difluoromethoxyphenyl)-3-ethoxymethyl-1,5-dihydropyrrolo[2,3-d]pyridazin-4-one]	4.6 nM	141 to 143 °C	3 mg/kg
O=c1[nH]ncc2[nH]c(-c3ccc(OC(F)F)c(OC4CC4)c3)c(Cc3ccccc3)c12 [Example 19, 3-Benzyl-2-(3-cyclopropoxy-4-difluoromethoxyphenyl)-1,5-dihydropyrrolo[2,3-d]pyridazin-4-one]	0.18 nM	215 to 217 °C	
O=c1[nH]ncc2[nH]c(-c3ccc(OC(F)F)c(OC4CC4)c3)c(Br)c12 [Example 3, 3-Bromo-2-(3-cyclopropoxy-4-difluoromethoxyphenyl)-1,5-dihydropyrrolo[2,3-d]pyridazin-4-one]	5.2 nM	267 to 270 °C (dec.)	
O=c1[nH]ncc2[nH]c(-c3ccc(OC(F)F)c(OCC4CC4)c3)c(Cl)c12 [Example 36, 3-Chloro-2-(3-cyclopropylmethoxy-4-difluoromethoxyphenyl)-1,5-dihydropyrrolo[2,3-d]pyridazin-4-one]	7.9 nM	258 to 260 °C	
CCc1c(-c2ccc(OC(F)F)c(OC3CC3)c2)[nH]c2cn[nH]c(=O)c12 [Example 5, 2-(3-Cyclopropoxy-4-difluoromethoxyphenyl)-3-ethyl-1,5-dihydropyrrolo[2,3-d]pyridazin-4-one]	3.4 nM	223 to 225 °C	>30 mg/kg
O=C(Nc1c(Cl)cncc1Cl)c1ccc(OC(F)F)c(OCC2CC2)c1 [compound A, N-(3,5-dichloro-4-pyridyl)-3-cyclopropylmethoxy-4-difluoromethoxybenzamide, reference compound]			0.1 mg/kg
O=c1[nH]ncc2[nH]c(-c3ccc(OC(F)F)c(OC4CCC4)c3)c(Br)c12 [Example 33, 3-Bromo-2-(3-cyclobutoxy-4-difluoromethoxyphenyl)-1,5-dihydropyrrolo[2,3-d]pyridazin-4-one]	1.8 nM	234 to 238 °C	

Second part, led by results:

IC50 (PDE4)	melting point	SMILES	Monkey Maximum non-emesis dose (cynomulgus monkey)
11 nM	> 300 °C	O=c1[nH]ncc2[nH]c(-c3ccc(OC(F)F)c4c3C=CC3(CCCC3)O4)c(Cl)c12 [Example 57, 3-Chloro-2-(8-difluoromethoxy-2H-chromen-2-spiro-1′-cyclopentan-5-yl)-1,5-dihydropyrrolo[2,3-d]pyridazin-4-one]	
0.23 nM	139 to 143 °C	CC(C)C#CCc1c(-c2ccc(OC(F)F)c(OC3CC3)c2)[nH]c2cn[nH]c(=O)c12 [Example 73, 2-(3-cyclopropoxy-4-difluoromethoxyphenyl)-3-(4-methyl-2-pentynyl)-1,5-dihydropyrrolo[2,3-d]pyridazin-4-one]	
0.38 nM	186 to 188 °C	CCCCCCc1c(-c2ccc(OC(F)F)c(OC3CC3)c2)[nH]c2cn[nH]c(=O)c12 [Example 69, 2-(3-Cyclopropoxy-4-difluoromethoxyphenyl)-3-hexyl-1,5-dihydropyrrolo[2,3-d]pyridazin-4-one]	
3.5 nM	290 to 295 °C	O=c1[nH]ncc2[nH]c(-c3ccc(OC(F)F)c4c3CC3(CCCC3)O4)cc12 [Example 49, 2-(7-Difluoromethoxy-2,3-dihydrobenzofuran-2-spiro-1′-cyclopentan-4-yl)-1,5-dihydropyrrolo[2,3-d]pyridazin-4-one]	
8 nM	226 to 234 °C	CC1(C)C=Cc2c(-c3[nH]c4cn[nH]c(=O)c4c3Cl)ccc(OC(F)F)c2O1 [Example 52, 3-Chloro-2-(8-difluoromethoxy-2,2-dimethyl-2H-chromen-5-yl)-1,5-dihydropyrrolo[2,3-d]pyridazin-4-one]	
36 nM	232 to 242 °C	O=c1[nH]ncc2[nH]c(-c3ccc(OC(F)F)c4c3C=CC(C3CC3)O4)cc12 (stereo not shown) [Example 58, 2-(2-Cyclopropyl-8-difluoromethoxy-2H-chromen-5-yl)-1,5-dihydropyrrolo[2,3-d]pyridazin-4-one]	
7.1 nM	249 to 251 °C	O=c1[nH]ncc2[nH]c(-c3ccc(OC(F)F)c(OCC4CC4)c3)c(-c3ccccc3)c12 [Example 38, 2-(3-Cyclopropylmethoxy-4-difluoromethoxyphenyl)-3-phenyl-1,5-dihydropyrrolo[2,3-d]pyridazin-4-one]	
2.6 nM	198 to 200 °C	CCCCc1c(-c2ccc(OC)c(OC3CC3)c2)[nH]c2cn[nH]c(=O)c12 [Example 44, 3-Butyl-2-(3-cyclopropoxy-4-methoxyphenyl)-1,5-dihydropyrrolo[2,3-d]pyridazin-4-one]	
16 nM	265 °C (dec.)	COc1ccc(-c2cc3c(=O)[nH]ncc3[nH]2)c2c1OC1(CCCC1)C2 [Example 50, 2-(2,3-Dihydro-7-methoxybenzofuran-2-spiro-1′-cyclopentan-4-yl)-1,5-dihydropyrrolo[2,3-d]pyridazin-4-one]	
1.4 nM	201 to 203 °C	CCOCCc1c(-c2ccc(OC(F)F)c(OC3CC3)c2)[nH]c2cn[nH]c(=O)c12 [Example 67, 2-(3-Cyclopropoxy-4-difluoromethoxyphenyl)-3-(2-ethoxyethyl)-1,5-dihydropyrrolo[2,3-d]pyridazin-4-one]	
